Where two headings read alike, the source gives them in different places.
How the values were obtained:
Propionibacterium acne [1] = test: Zone of inhibition (agar well diffusion technique); assay type: cell-based
Method: (§1) Two series of tests were conducted to evaluate the bioefficacy of bakuchiol, salicylic acid and the combination of the two against Propionibacterium acne. The first evaluated the median inhibitory concentration (IC50) of each of the two actives in order to set the dosing for the second test. The second test ascertained the bioefficacy, as represented by the zone of inhibition, of each active and their combination in relation to P. acne. In both sets of tests, inoculums of 1.0 x 10^6 cfu/ml P. acne were used.
Agar plates were prepared by first pouring sterile molten agar into petriplates to a depth of 6mm. After allowing the agar to solidify sufficiently, a well of 10 mm diameter was prepared by carefully punching and removing a 10 mm diameter plug of agar without lifting the surrounding medium. In this experiment, all cultures used were adjusted to the turbidity of 0.5 McFarland per the standard procedure and then 0.1 ml of each culture was spread plated onto the agar plates. Appropriate controls were maintained.
Stock solutions of the actives to be tested were prepared by dissolving 1 mg of each of the actives, Sytenol A bakuchiol and salicylic acid, in separate 5 ml quantities of dimethyl sulfoxide (DMSO) at room temperature: though slight warming was employed to expedite the dissolution of the salicylic acid. These stock solutions were then diluted or mixed and diluted to produce sample solutions having the concentrations of each active as noted in Table 4 and the well of each plate filled with the appropriate solution by capillary pipette. Nothing was placed in the well of the control.
Following inoculation and addition of the test sample to the well, each plate was then covered and incubated for 48 hours at 37 °C. Following incubation, the plates were removed and the zones of inhibition recorded and tabulated. […] When both actives were present at one-half the median inhibitory concentration, […] (Sample F); however, it seemed that the apparent ineffectiveness of the salicylic acid at this level appeared to offset or counteract the effectiveness of the bakuchiol. Consequently, at least for salicylic acid, at least one-half and preferably at least the median inhibitory concentration of the dermatological acid should be used.

[2] = target: T1, human neutrophil elastase (Homo sapiens, UniProt P08246); test: Elastase inhibitory activity (colorimetric substrate Suc-Ala-Ala-Ala-pNA, 410 nm); assay type: biochemical; settings: for remaining activity at 1 µg/mL: 1 ug/ml; for remaining activity at 1 µg/mL / remaining activity at 5 µg/mL / remaining activity at 25 µg/mL: average of three runs, water = 100, read-out: Elastase Activity (% of Control); for remaining activity at 5 µg/mL: 5 ug/ml; for remaining activity at 25 µg/mL: 25 ug/ml; for elastase inhibitory effect: at the concentrations tested
T1 construct: purchased Calbiochem of San Diego, CA, US 324681
T1 sequence (P08246 30-247 limits assumed): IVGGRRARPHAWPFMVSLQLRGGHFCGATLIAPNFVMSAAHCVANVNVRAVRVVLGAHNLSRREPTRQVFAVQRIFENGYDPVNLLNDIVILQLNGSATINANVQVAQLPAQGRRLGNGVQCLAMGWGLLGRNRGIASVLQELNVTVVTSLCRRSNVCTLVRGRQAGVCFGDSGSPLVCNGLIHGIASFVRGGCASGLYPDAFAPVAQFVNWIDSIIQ

Propionibacterium acne [3] = test: Median inhibitory concentration (IC50) in BHI broth, reading at 610 nm; assay type: cell-based
Method: as §1
P. acne organisms were inoculated into Brain Heart Infusion (BHI) broth and incubated at 37°C for 24 hrs. Thereafter, the culture was serially diluted to a 10^-6 dilution. 100 µl aliquots of the 10^-6 dilution culture were then added to sterile test tubes containing 10 ml fresh BHI broth serial solutions of bakuchiol or salicylic acid. The serial solutions contained either active at from 0.5 to 50 µg/ml concentrations in 0.5 µg/ml increments, i.e., 0.5, 1.0, 1.5,..., 50.0 µg/ml. An inoculated control, free of either active, was also evaluated. The inoculated test tubes were then incubated at 37°C for 48 hrs. UV spectrophotometric readings were then made of each test tube at 610 nm and the values plotted.

[4] = Skin sensitivity: repeated occlusive patch test, nine inductive patchings and a challenge; assay type: in vivo; settings: 5% dilution in corn oil, 111 subjects
Method: Reactions were scored 24 and 48 hours after application.

[5] = system: Clostridium collagenase IV; test: Collagenase inhibitory activity (Enzcheck kit, quenched fluorescent gelatin); assay type: biochemical
Method: In order to ascertain whether other benefits may be attained by the use of meroterpenes in skin care formulations, a study was conducted on the impact, if any, the presence of bakuchiol may have on collagenase: a collagenolytic enzyme responsible for much of the collagen damage associated with UV exposure and photoaging in general. Collagenase activity was measured with an Enzcheck kit from Molecular Probes (Carlsbad, CA, USA) using quenched fluorescent gelatin and Clostridium collagenase IV, a generic metalloproteinase. Test material (aqueous solutions 1000ug/ml, 100ug/ml, 10ug/ml and 1ug/ml made from 10mg/ml stock in DMSO) was incubated in the presence of collagenase substrate - quenched fluorescin-linked gelatin and in the presence of the proteolytic enzyme. Phenanthroline, a potent metalloprotease (MP) inhibitor was used as positive control at 100ug/ml. The kinetics of the release of the digested, fluorescent gelatin were measured at excitation/emission wavelengths of 485/530nm with Millipore Cytofluor 2350 microfluorometer.

Structure (SMILES)	zone of inhibition at 0.3 µg/mL (Propionibacterium acne [1]; Propionibacterium, Sample A: Bakuchiol 0.3 µg/ml) [mm]	zone of inhibition at 0.6 µg/mL (Propionibacterium acne [1]; Propionibacterium, Sample B: Bakuchiol 0.6 µg/ml) [mm]	remaining activity at 1 µg/mL [2] [%]	remaining activity at 5 µg/mL [2] [%]	remaining activity at 25 µg/mL [2] [%]	elastase inhibitory effect [2]	IC50 (Propionibacterium acne [3]; 48 hrs at 37°C, read-out: IC50) [µg/mL]	primary irritation [4]	sensitization [4]	Collagenase median inhibitory concentration (IC50) [5]	zone of inhibition at 29 µg/mL (Propionibacterium acne [1]; Propionibacterium) [mm]	zone of inhibition at 58 µg/mL (Propionibacterium acne [1]; Propionibacterium) [mm]	Zone of Inhibition (Propionibacterium acne [1]; Sample C: Salicylic acid 14.5 µg/ml)	IC50 (Propionibacterium acne [3]; 48 h) [µg/mL]
C=C[C@@](C)(/C=C/c1ccc(O)cc1)CCC=C(C)C [Bakuchiol]	35	37	31	65	77	clear elastase inhibition at all concentrations tested	0.6	NON-PRIMARY IRRITANT	NON-PRIMARY SENSITIZER	~0.1 % (w/w)				
CC1=C(/C=C/C(C)=C/C=C/C(C)=C/CO)C(C)(C)CCC1 [Retinol, reference compound]			87	138	416	no statistically significant elastase inhibitory effect								
O=C(O)c1ccccc1O [Salicylic acid, 2-hydroxybenzoic acid]											12	12	No Inhibition	29

Source: EP2144590B1, “SKIN TREATMENT COMPOSITIONS AND METHODS” (Sytheon Ltd., priority 2007, dated 2008)
